Data reported in ChEMBL document CHEMBL3988442, “University of Dundee, Small-Polar-MMV Screening Library” (2021).
Several values for one entry are separate records, joined by “and”; a condition that tells them apart may be missing. Equal values may be shown once.

tested on: Leishmania donovani; assay: Leishmania intramacrophage assay; type: functional, organism-based; conditions: not given

Row | SMILES | pIC50
1 | Cc1cc2c(c(-c3cncc(C(=O)N4CCCC4)n3)c1)OC(CN)C2 (stereo not given) | 4.717
2 | CCOc1ccc(-c2c(-c3ccccc3)ncn2C2CCNC2)cn1 (stereo not given) | 4.374
3 | Cl.NCC(=O)N1CCC(c2ccnc(Nc3cc(C(F)(F)F)ccn3)n2)C1 (stereo not given) | 4.798
4 | Cc1cc(=O)n2nc(Oc3ccc(Cl)c(C)c3)sc2n1 | 4.378
5 | Cc1ccc(CN2Cc3c(cnn3C)C(COCC3CC3)C2)s1 (stereo not given) | 5.151 and 4.71
6 | Clc1ccccc1-c1cc(CNc2ncnc3c2CCNCC3)no1 | 4.821
7 | COc1cccc(Nc2nc(N3CCCC3)nc3c2CNCC3)c1.Cl | 5.277
8 | CN1CCC(N(Cc2ccco2)S(=O)(=O)c2cc(Br)ccc2Br)CC1 | 4.867
9 | CCCC1CCCN(Cc2csc(-c3ncccn3)n2)CC1 (stereo not given) | 4.896
10 | CCOc1ccc(CNCCCn2ccnc2)cc1Br | 4.774
11 | CCC(N)C(=O)N1CCC(OCc2ccc(Cl)c(Cl)c2)CC1.Cl (stereo not given) | 4.694
12 | Cc1nc(C2(O)CCCNCC2)sc1CCOc1ccccc1Cl.Cl (stereo not given) | 5.014
13 | CC(C)C[C@H](N)C(=O)N1CC2(CCNCC2)c2cc(Cl)ccc21.Cl.Cl | 4.898 and 5.256

same assay, conditions: Leishmania donovani

Row | SMILES | IC50 [µM]
14 | CN(C)CCNC(=O)c1ccc2ccc(N(C)CC3CC3)n2c1 | > 50.1
15 | COc1ccc(C)cc1CNC(=O)C1=NN(c2ccccc2)C(=O)CN1 | > 50.1
16 | O=C(NC1COC2(CCN(Cc3ccccn3)CC2)C1)c1ccccn1 (stereo not given) | > 50.1
17 | Cc1cc2c(c(-c3cncc(C(=O)N4CCCC4)n3)c1)OC(CN)C2 (stereo not given) | 27.5
18 | FC1(F)CCN(Cc2cccnc2)CC12CCN(c1ccccn1)C2 (stereo not given) | > 50.1
19 | Cc1nccn1CC1CCCN(C(=O)Cc2ccsc2)C1 (stereo not given) | > 50.1
20 | CCOc1ccc(-c2c(-c3ccccc3)ncn2C2CCNC2)cn1 (stereo not given) | > 50.1
21 | Cc1cc(C(F)(F)F)nc(N2CCN3CCCC3C2)n1 (stereo not given) | > 50.1
22 | CNS(=O)(=O)c1cccc(C(C)NCc2cccc(OC)c2)c1 (stereo not given) | > 50.1
23 | Cc1cc(C(F)(F)F)nc(N2CCN(Cc3nccn3C)CC2)n1 | > 50.1
24 | Cl.NCC(=O)N1CCC(c2ccnc(Nc3cc(C(F)(F)F)ccn3)n2)C1 (stereo not given) | 15
25 | CC(C)n1ccnc1C1CCCN(c2ccccn2)C1 (stereo not given) | > 50.1
26 | CCN(CC)c1ccc2ccc(C(=O)N(CCOC)CCOC)cn12 | > 50.1
27 | O=C(NCCCN1CCCC1=O)c1ccc(-n2ccc3ccccc32)s1 | > 50.1
28 | Cc1cnn(-c2cccc(N3CCCC3)n2)c1 | > 50.1
29 | Cn1ncc2c1CN(Cc1ccc(F)cc1)CC2COCC1CC1 (stereo not given) | > 50.1
30 | Cc1cc(N(C)CC2COc3ccccc3O2)nc(C)n1 (stereo not given) | > 50.1
31 | Cc1cc(=O)n2nc(Oc3ccc(Cl)c(C)c3)sc2n1 | > 50.1
32 | CCOc1cc(CNCCCn2ccnc2)cc(Cl)c1OCC | 7.08
33 | FC(F)(F)c1nc(NC2CCCC2)c2ccccc2n1 | > 50.1
34 | CCn1nccc1CN(C)C(=O)Cn1cc2c(n1)c(C)nn2CC | > 50.1
35 | COc1ccc(C(NCc2cccc(C#N)c2)C(C)C)cc1 (stereo not given) | > 50.1
36 | CC(=O)N1CCCN(Cc2csc(-c3ncccn3)n2)CC1 | > 50.1
37 | CNC(=O)[C@@H]1C[C@H]2CN(Cc3ccco3)C[C@H]2N1C | > 50.1
38 | CN(Cc1ccncc1)C1COC2(CCN(Cc3ccsc3)CC2)C1 (stereo not given) | > 50.1
39 | O=C(NCc1cccnc1)C1=NN(c2ccccc2)C(=O)CN1 | > 50.1

Row | SMILES | IC50 [µM]
40 | CCOc1cc(CNCCCn2ccnc2)cc(Cl)c1OC | 24.6
41 | CN(C)C1COC2(CCN(Cc3ccncc3)CC2)C1 (stereo not given) | > 50.1
42 | CCOCCN(CCOCC)c1nc(C)nc2sccc12 | > 50.1
43 | CCc1nnc(CN2CCN(c3cccc(OC)c3)C(=O)C2)o1 | > 50.1
44 | Cn1nc(COc2cccnc2)c2c1CCN(CC1CC1)C2 | > 50.1
45 | O=C(C1CCC1)N1CCC(c2ncc3c(n2)CCNC3)CC1 | > 50.1
46 | CCCc1nc(CN2CCCC2Cn2cncn2)cs1 (stereo not given) | > 50.1
47 | Cn1ccc(C(=O)N2CCCC(Cc3cccc4ncccc34)C2)n1 (stereo not given) | > 50.1
48 | Cc1ncc(CNc2cnccc2CO)s1 | > 50.1
49 | COc1cccc(C(=O)NCc2ccccc2S(=O)(=O)N(C)C)c1 | > 50.1
50 | OC(c1ccccc1)C1CCN(Cc2csc(-c3ncccn3)n2)CC1 (stereo not given) | > 50.1
51 | CN(c1ncnc2c1CCC2)C1CCCN(c2cccnn2)C1 (stereo not given) | > 50.1
52 | COCCNC(=O)c1ccc2ccc(N3CCN(CC4CC4)CC3)n2c1 | > 50.1
53 | CCOc1ccc(Cl)cc1CNCCCn1ccnc1 | 38.5
54 | FC1(F)CCN(Cc2ccncc2)CC12CCN(c1cnccn1)C2 (stereo not given) | > 50.1
55 | CN1CCN(C2COC3(CCN(CC4CC4)CC3)C2)CC1 (stereo not given) | > 50.1
56 | COc1cccc(CNCC2CN(C)CCO2)c1 (stereo not given) | > 50.1
57 | Cc1ccc(N2CCCC(N(C)c3ncnc4c3CCC4)C2)nn1 (stereo not given) | > 50.1
58 | CNC(=O)C1CCCN(c2nc(-c3ccco3)nc3c2CCNCC3)C1 (stereo not given) | > 50.1
59 | Clc1ccccc1C1(c2ccnc(-c3ncccn3)n2)CCNCC1 | > 50.1
60 | CC(C(=O)NCc1ccnc(N(C)C)c1)n1cccn1 (stereo not given) | > 50.1
61 | O=c1[nH]cccc1-c1nccc(C2(c3ccccc3Cl)CCNCC2)n1 | > 50.1
62 | CN(CC1CC1)c1ccc2ccc(C(=O)NC3CCCCC3)cn12 | > 50.1
63 | Cc1ccc(N2CCC3(CN(Cc4cccs4)CCC3(F)F)C2)nn1 (stereo not given) | > 50.1
64 | CC1CCCN(Cc2ccnc(-c3cccnc3)n2)C1 (stereo not given) | > 50.1
65 | COc1ccccc1C1(CNc2nnc(C)c(C)c2C#N)CCOCC1 | > 50.1

Row | SMILES | IC50 [µM]
66 | CC(=O)NC1CCCN(Cc2csc(-c3ncccn3)n2)C1 (stereo not given) | > 50.1
67 | Cc1nc(NCc2cccnc2)c2c(n1)c(C)nn2C | > 50.1
68 | Clc1ccccc1-c1cc(CNc2ncnc3c2CCNCC3)no1 | 12
69 | CCOc1c(CNCCCn2ccnc2)cc(Cl)cc1OC | 27.5
70 | O=C(NCCN1CCOCC1)c1ccc(-n2ccc3ccccc32)s1 | > 50.1
71 | O=C(NCc1ccccn1)C1=NN(c2ccccc2)C(=O)CN1 | > 50.1
72 | COc1cccc(Nc2nc(N3CCCC3)nc3c2CNCC3)c1.Cl | 4.47
73 | CC(C)N1CCN(c2ccc3ccc(C(=O)NC4CCCC4)cn23)CC1 | > 50.1
74 | CN1CCC(N(Cc2ccco2)S(=O)(=O)c2cc(Br)ccc2Br)CC1 | 17.8
75 | COCc1noc(CNc2nc(C3CCCC3)nc3c2CCNCC3)n1 | > 50.1
76 | CCC(CO)NC(=O)c1ccc2ccc(N(C)CC3CC3)n2c1 (stereo not given) | > 50.1
77 | O=C(c1c[nH]cn1)N1CCC(F)(F)C2(CCN(c3ccccn3)C2)C1 (stereo not given) | > 50.1
78 | FC1(F)CCN(Cc2ccncc2)CC12CCN(c1cccnc1)C2 (stereo not given) | > 50.1
79 | Cc1cc(CN2CCCC(Cn3cncn3)C2)on1 (stereo not given) | > 50.1
80 | CCCC1CCCN(Cc2csc(-c3ncccn3)n2)CC1 (stereo not given) | 18.4
81 | CN1CCN(c2ccc3ccc(C(=O)N4CCCCO4)cn23)CC1 | > 50.1
82 | COCc1ccc(CNC(=O)C2=NN(c3ccccc3)C(=O)CN2)cc1 | > 50.1
83 | CC(O)CN1CCN(Cc2csc(-c3ncccn3)n2)CC1 (stereo not given) | > 50.1
84 | Cn1cc(CN2CCC(F)(F)C3(CCN(c4ncc(F)cn4)C3)C2)cn1 (stereo not given) | > 50.1
85 | FC1(F)CCN(c2ccccc2)CC12CCN(c1ncccn1)C2 (stereo not given) | > 50.1
86 | CC(=O)N1CCc2nc3sc(C(N)=O)c(N)c3c(C(F)(F)F)c2C1 | > 50.1
87 | COCCN(C)C1COC2(CCN(Cc3cccc(F)c3)CC2)C1 (stereo not given) | > 50.1
88 | CCOc1ccc(CNCCCn2ccnc2)cc1Br | 14.4
89 | FC1(F)CCN(Cc2ccccn2)CC12CCN(c1cnccn1)C2 (stereo not given) | > 50.1
90 | CN(C)C(=O)N1CCN(c2ccc3ccc(C(=O)NC4CC4)cn23)CC1 | > 50.1
91 | CN1CCN(C2COC3(CCN(Cc4ccsc4)CC3)C2)CC1 (stereo not given) | > 50.1

Row | SMILES | IC50 [µM]
92 | Fc1ccc(CN2CCC(F)(F)C3(CCN(c4cnccn4)C3)C2)cc1 (stereo not given) | > 50.1
93 | COc1ccc(C(NCc2ccc(C#N)cc2)C2CC2)cc1 (stereo not given) | > 50.1
94 | O=C(CCc1cscn1)N1CCCC(n2ccnc2)C1 (stereo not given) | > 50.1
95 | Cc1sc2nc(C(F)(F)F)nc(N3CCCN(C)CC3)c2c1C | 46.2
96 | CN1CCN(CC(NCc2ccc(F)cc2)c2ccccc2)CC1 (stereo not given) | 13.6
97 | O=C(O)C1CCCN1c1nc(-c2ccc(Cl)c(Cl)c2)cc(C(F)(F)F)n1 (stereo not given) | > 50.1
98 | CCN1CCCC(O)(c2nc(C)c(CCOc3ccc(F)cc3)s2)CC1 (stereo not given) | > 50.1
99 | CCN(CC)c1ccc2ccc(C(=O)N(C)C)cn12 | > 50.1
100 | Cn1cc(CN2CCC(F)(F)C3(CCN(c4ccccn4)C3)C2)cn1 (stereo not given) | > 50.1
101 | NCC1CN(c2nc(-c3ccccc3)nc3c2CCNCC3)CCO1 (stereo not given) | > 50.1
102 | CCCN(CCOC)c1nc(C)nc2sccc12 | > 50.1
103 | CCCC1CCCN(Cc2csc(-c3cnn(C)c3)n2)CC1 (stereo not given) | > 50.1
104 | Cc1ccc(-c2cc(C(F)(F)F)nc(N3CCOCC3)n2)s1 | > 50.1
105 | CCC(N)C(=O)N1CCC(OCc2ccc(Cl)c(Cl)c2)CC1.Cl (stereo not given) | 21.5
106 | c1cnc(-c2nc(CN3CCCC(N4CCCC4)C3)cs2)nc1 (stereo not given) | > 50.1
107 | CCn1ncc(-c2cc(C(F)F)nc3sc(C(N)=O)c(N)c23)c1C | > 50.1
108 | CC(Cn1ccnc1)NCc1cc(Br)c2c(c1)OCO2 (stereo not given) | > 50.1
109 | Cc1ccc2c(n1)N(Cc1cccnc1)CCN(Cc1cnn(C)c1)C2 | > 50.1
110 | Cc1nc(C2(O)CCCNCC2)sc1CCOc1ccccc1Cl.Cl (stereo not given) | 12.5
111 | Cc1nnc(NCC2(c3ccccc3)CCOCC2)c(C#N)c1C | > 50.1
112 | COc1ccc(OCc2sc(C3(O)CCCNCC3)nc2C)cc1 (stereo not given) | > 50.1
113 | COCCN(Cc1cnn(C)c1)c1nc(C)nc2sccc12 | > 50.1
114 | c1cnc(-c2nc(CN3CCCN(Cc4cccs4)CC3)cs2)nc1 | > 50.1
115 | CNC(=O)c1sccc1N(C)S(=O)(=O)c1ccc(Cl)cc1 | > 50.1
